Key:
Rattus norvegicus [1] = species: Rattus norvegicus; assay: animal or person; format: functional; conditions: Charles River, route oral
Description: Antidiarrheal activity in Charles River rat assessed as inhibition of castor oil-induced diarrhea by measuring protected animals at 0.5 mg/kg, po administered 1 hr prior to castor oil challenge measured after 1 hr relative to vehicle-treated control

Rattus norvegicus [2] = species: Rattus norvegicus; assay: animal or person; format: functional; conditions: Charles River, route oral; remark: listed apart in the source
Description: Antidiarrheal activity in Charles River rat assessed as inhibition of castor oil-induced diarrhea by measuring protected animals at 1 mg/kg, po administered 1 hr prior to castor oil challenge measured after 1 hr relative to vehicle-treated control

Rattus norvegicus [3] = species: Rattus norvegicus; assay: animal or person; conditions: Charles River, po, read-out: INH
Description: Antidiarrheal activity in Charles River rat assessed as inhibition of castor oil-induced diarrhea by measuring protected animals at 2 mg/kg, po administered 1 hr prior to castor oil challenge measured after 1 hr relative to vehicle-treated control

Rattus norvegicus [4] = assay: Antiulcer activity in albino Sprague-Dawley rat reserpine ulcer model assessed as prevention of reserpine-induced gastric lesions by measuring ulcer index scores at 5 mg/kg, po administered 30 mins prior to reserpine challenge measured after 6 hrs; format: functional, Stomach
Rattus norvegicus [5] = assay: Antiulcer activity in albino Sprague-Dawley rat shay ulcer model assessed as ulcer index scores at 5 mg/kg administered intraduodenally post pyloric ligation measured after 18.5 hrs relative to vehicle-treated control; format: functional; conditions: route intraduodenal
Rattus norvegicus [6] = assay: Antisecretory activity in Sprague-Dawley rat assessed as decrease in acid output at 1 mg/kg, po administered 30 mins prior to pylorus ligation measured after 4 hrs relative to control; format: functional; parameters: scale not given: the % may be the effect or the level left
Rattus norvegicus [7] = assay: Antisecretory activity in Sprague-Dawley rat assessed as decrease in acid output at 2.5 mg/kg, po administered 30 mins prior to pylorus ligation measured after 4 hrs relative to control; format: functional; parameters: scale not given: the % may be the effect or the level left
Rattus norvegicus [8] = assay: Antisecretory activity in Sprague-Dawley rat assessed as decrease in acid output at 5 mg/kg, po administered 30 mins prior to pylorus ligation measured after 4 hrs relative to control; format: functional; parameters: scale not given: the % may be the effect or the level left
Rattus norvegicus [9] = assay: Antisecretory activity in Sprague-Dawley rat assessed as decrease in acid output at 10 mg/kg, po administered 30 mins prior to pylorus ligation measured after 4 hrs relative to control; format: functional; parameters: scale not given: the % may be the effect or the level left
Rattus norvegicus [10] = assay: Increase in pepsin concentration in Sprague-Dawley rat at 1 mg/kg, po administered 30 mins prior to pylorus ligation measured after 4 hrs relative to control; format: functional
Rattus norvegicus [11] = assay: Increase in pepsin concentration in Sprague-Dawley rat at 2.5 mg/kg, po administered 30 mins prior to pylorus ligation measured after 4 hrs relative to control; format: functional
Rattus norvegicus [12] = assay: Increase in pepsin concentration in Sprague-Dawley rat at 5 mg/kg, po administered 30 mins prior to pylorus ligation measured after 4 hrs relative to control; format: functional
Rattus norvegicus [13] = assay: Increase in pepsin concentration in Sprague-Dawley rat at 10 mg/kg, po administered 30 mins prior to pylorus ligation measured after 4 hrs relative to control; format: functional
Rattus norvegicus [14] = assay: Antisecretory activity in Sprague-Dawley rat assessed as decrease in pepsin output at 1 mg/kg, po administered 30 mins prior to pylorus ligation measured after 4 hrs relative to control; format: functional; parameters: scale not given: the % may be the effect or the level left
Rattus norvegicus [15] = assay: Antisecretory activity in Sprague-Dawley rat assessed as decrease in pepsin output at 2.5 mg/kg, po administered 30 mins prior to pylorus ligation measured after 4 hrs relative to control; format: functional; parameters: scale not given: the % may be the effect or the level left
Rattus norvegicus [16] = assay: Antisecretory activity in Sprague-Dawley rat assessed as decrease in pepsin output at 5 mg/kg, po administered 30 mins prior to pylorus ligation measured after 4 hrs relative to control; format: functional; parameters: scale not given: the % may be the effect or the level left
Rattus norvegicus [17] = assay: Antisecretory activity in Sprague-Dawley rat assessed as decrease in pepsin output at 10 mg/kg, po administered 30 mins prior to pylorus ligation measured after 4 hrs relative to control; format: functional; parameters: scale not given: the % may be the effect or the level left
Rattus norvegicus [18] = assay: Antiulcer activity in albino Sprague-Dawley rat stress ulcer model assessed as prevention of stress-induced gastric lesions by measuring ulcer index score at 10 mg/kg, po administered 30 mins prior to stress measured after 4 hrs; format: functional, Stomach
Rattus norvegicus [19] = assay: Antiulcer activity in albino Sprague-Dawley rat reserpine ulcer model assessed as prevention of reserpine-induced gastric lesions by measuring ulcer index scores at 10 mg/kg, po administered 30 mins prior to reserpine challenge measured after 6 hrs; format: functional, Stomach
Rattus norvegicus [20] = assay: Antiulcer activity in albino Sprague-Dawley rat stress ulcer model assessed as prevention of stress-induced gastric lesions at 5 mg/kg, po administered 30 mins prior to stress measured after 4 hrs relative to vehicle-treated control; format: functional, Stomach
Rattus norvegicus [21] = assay: Antiulcer activity in albino Sprague-Dawley rat shay ulcer model assessed as ulcer index scores at 10 mg/kg administered intraduodenally post pyloric ligation measured after 18.5 hrs relative to vehicle-treated control; format: functional; conditions: route intraduodenal
Rattus norvegicus [22] = assay: Antisecretory activity in Sprague-Dawley rat assessed as decrease in volume at 1 mg/kg, po administered 30 mins prior to pylorus ligation measured after 4 hrs relative to control; format: functional; parameters: scale not given: the % may be the effect or the level left
Rattus norvegicus [23] = assay: Antisecretory activity in Sprague-Dawley rat assessed as decrease in volume at 2.5 mg/kg, po administered 30 mins prior to pylorus ligation measured after 4 hrs relative to control; format: functional; parameters: scale not given: the % may be the effect or the level left
Rattus norvegicus [24] = assay: Antisecretory activity in Sprague-Dawley rat assessed as decrease in volume at 5 mg/kg, po administered 30 mins prior to pylorus ligation measured after 4 hrs relative to control; format: functional; parameters: scale not given: the % may be the effect or the level left
Rattus norvegicus [25] = assay: Antisecretory activity in Sprague-Dawley rat assessed as decrease in volume at 10 mg/kg, po administered 30 mins prior to pylorus ligation measured after 4 hrs relative to control; format: functional; parameters: scale not given: the % may be the effect or the level left
Rattus norvegicus [26] = assay: Antisecretory activity in Sprague-Dawley rat assessed as decrease in acidity at 1 mg/kg, po administered 30 mins prior to pylorus ligation measured after 4 hrs relative to control; format: functional; parameters: scale not given: the % may be the effect or the level left
Rattus norvegicus [27] = assay: Antisecretory activity in Sprague-Dawley rat assessed as decrease in acidity at 2.5 mg/kg, po administered 30 mins prior to pylorus ligation measured after 4 hrs relative to control; format: functional; parameters: scale not given: the % may be the effect or the level left
Rattus norvegicus [28] = assay: Antisecretory activity in Sprague-Dawley rat assessed as decrease in acidity at 5 mg/kg, po administered 30 mins prior to pylorus ligation measured after 4 hrs relative to control; format: functional; parameters: scale not given: the % may be the effect or the level left
Rattus norvegicus [29] = assay: Antisecretory activity in Sprague-Dawley rat assessed as decrease in acidity at 10 mg/kg, po administered 30 mins prior to pylorus ligation measured after 4 hrs relative to control; format: functional; parameters: scale not given: the % may be the effect or the level left

CN1CC[C@]23c4c5ccc(O)c4O[C@H]2[C@@H](O)C=C[C@H]3[C@H]1C5
inhibition in vivo at 0.5 mg/kg (Rattus norvegicus [1]): 0% | inhibition in vivo at 1 mg/kg (Rattus norvegicus [2]): 30% | inhibition in vivo at 2 mg/kg (Rattus norvegicus [3]): 50%

Cl.NC(=S)Cc1ccccn1
UI (Rattus norvegicus [4]): 0.1 | UI (Rattus norvegicus [5]): 3.3 | Activity (Rattus norvegicus [6]): 35.5% | Activity (Rattus norvegicus [7]): 47.3% | Activity (Rattus norvegicus [8]): 81.8% | Activity (Rattus norvegicus [9]): 95.5% | Activity (Rattus norvegicus [10]): 29.3% | Activity (Rattus norvegicus [11]): 43.1% | Activity (Rattus norvegicus [12]): 92.6% | Activity (Rattus norvegicus [13]): 45.8% | Activity (Rattus norvegicus [14]): 19% | Activity (Rattus norvegicus [15]): 8.4% | Activity (Rattus norvegicus [16]): 31% | Activity (Rattus norvegicus [17]): 58.9% | UI (Rattus norvegicus [18]): 0 | UI (Rattus norvegicus [19]): 0 | UI (Rattus norvegicus [20]): 0.4 | UI (Rattus norvegicus [21]): 0.7 | Activity (Rattus norvegicus [22]): 33.1% | Activity (Rattus norvegicus [23]): 35.8% | Activity (Rattus norvegicus [24]): 64% | Activity (Rattus norvegicus [25]): 76.7% | Activity (Rattus norvegicus [26]): 3.8% | Activity (Rattus norvegicus [27]): 17.4% | Activity (Rattus norvegicus [28]): 49.8% | Activity (Rattus norvegicus [29]): 86.3%

— ChEMBL document CHEMBL3272295, “Drugs derived from cannabinoids. 5. delta6a,10a-Tetrahydrocannabinol and heterocyclic analogs containing aromatic side chains” (J Med Chem, 1976)
